Results: US9981928B2, “Aryl sulfide derivatives and aryl sulfoxide derivatives as acaricides and insecticides” (BAYER CROPSCIENCE AKTIENGESELLSCHAFT, priority 2013, dated 2018)
Where two headings read alike, the source gives them in different places.

Legend:
[1] = log P determination by HPLC on reversed-phase columns (C 18), analogously to OECD Guideline 117; assay type: physicochemical; conditions: for logP (HCOOH): LC-MS in the acidic range, pH 2.7, 0.1% aqueous formic acid / acetonitrile; for logP (HCOOH) / logP (neutral): HPLC reversed-phase C 18; for logP (neutral): LC-MS in the neutral range, pH 7.8, 0.001 molar aqueous ammonium hydrogencarbonate / acetonitrile; for chromatographic logP: reversed-phase C18 HPLC column
Summary of the method: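 Reversed-phase C18 HPLC per OECD 117 with LC-MS detection and a linear 10→95% acetonitrile gradient. Acidic log P run at pH 2.7 with 0.1% formic acid in both eluents. Neutral log P run at pH 7.8 with 0.001 M aqueous ammonium hydrogencarbonate.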

[2] = tested on: greenhouse red spider mite (Tetranychus urticae); assay: Tetranychus urticae spray test, OP-resistant (TETRUR), bean leaf disks; assay type: in vivo; conditions: bean leaf disks, after 6 days
Experimental: Tetranychus urticae—Spray Test, OP-Resistant (TETRUR)
Solvent: 78.0 parts by weight of acetone
• 1.5 parts by weight of dimethylformamide Emulsifier: alkylaryl polyglycol ether
To produce a suitable preparation of active compound, 1 part by weight of active compound is dissolved using the stated parts by weight of solvent and made up with water containing an emulsifier concentration of 1000 ppm until the desired concentration is attained. To produce further test concentrations, the preparation is diluted with emulsifier-containing water.
disks of bean leaves (Phaseolus vulgaris) infested with all stages of the greenhouse red spider mite (Tetranychus urticae) are sprayed with an active compound preparation of the desired concentration.
After 6 days, the efficacy in % is determined. 100% means that all the spider mites have been killed; 0% means that none of the spider mites have been killed.

Row | chromatographic logP ([1]; acidic range, pH 2.7, 0.1% aqueous formic acid and acetonitrile, read-out: log P[a] / log P(HCOOH)) | chromatographic logP ([1]; neutral range, pH 7.8, 0.001 molar aqueous ammonium hydrogencarbonate and acetonitrile, read-out: log P[b] / log P(neutral)) | Structure (SMILES) | logP (HCOOH) [1] | logP (neutral) [1] | efficacy in % ([2]; application rate 500 g/ha) [%] | pest or weed control at 500 g/ha ([2]; Tetranychus urticae, foliar, 144 h, application rate 500 g/ha, read-out: efficacy in %) [%] | efficacy in % ([2]; application rate 100 g/ha) [%]
1 |  |  | Cc1cc(F)c(-n2c(=O)n(C3CC3)c(=O)n2CC(F)(F)F)cc1SCC(F)(F)F [Example 129] | 3.48 | 3.43 | 100 |  | 
2 |  |  | Cc1cc(F)c(N2C(=O)C3(CCC3)C(=O)N2C)cc1[S+]([O-])CC(F)(F)F (stereo not drawn) [Example 180] | 1.99 | 1.97 | 100 |  | 
3 |  |  | Cc1cc(F)c(-n2c(=O)n(-c3ccccc3)c(=O)n2CC(F)(F)F)cc1[S+]([O-])CC(F)(F)F (stereo not drawn) [Example 167] | 3.05 | 3.01 | 90 |  | 
4 |  |  | C=CCn1c(=O)n(C)c(=O)n1-c1ccc(C)c([S+]([O-])CC(F)(F)F)c1 (stereo not drawn) [Example 59] | 2.03 | 2.00 | 100 |  | 
5 |  |  | CCn1c(=O)n(CC(F)(F)F)n(-c2cc(SCC(F)(F)F)c(C)cc2F)c1=O [Example 145] | 3.54 | 3.49 | 100 |  | 
6 |  |  | Cc1cc(F)c(N2C(=O)CN(Cc3ccccc3)C2=O)cc1[S+]([O-])CC(F)(F)F (stereo not drawn) [Example 205] | 2.60 | 2.52 | 90 |  | 
7 |  |  | Cc1ccc(-n2c(=O)n(C(C)(C)C)c(=O)n2C(C)C)cc1SCC(F)(F)F [Example 135] | 4.77 | 4.70 | 90 |  | 
8 | 3.6 | 3.5 | Cc1cc(F)c(N2C(=O)CSC2=NCC(F)(F)F)cc1SCC(F)(F)F [Example 11, 3-{2-Fluoro-4-methyl-5-[(2,2,2-trifluoroethyl)sulfanyl]phenyl}-2-[(2,2,2-trifluoroethyl)imino]-1,3-thiazolidin-4-one] |  |  |  | 90 | 
9 |  |  | Cc1cc(F)c(-n2c(=O)n(-c3ccccc3)c(=O)n2CC(F)(F)F)cc1SCC(F)(F)F [Example 155] | 3.93 | 3.90 | 90 |  | 
10 |  |  | Cc1cc(C)c([S+]([O-])CC(F)(F)F)cc1N1C(=O)C(=O)N(CC(F)F)C1=O (stereo not drawn) [Example 184] | 2.44 |  | 100 |  | 
11 |  |  | CCCCN1CC(=O)N(c2cc(SCC(F)(F)F)c(C)cc2F)C1=O [Example 202] | 3.39 | 3.35 | 100 |  | 
12 |  |  | C=CCn1c(=O)n(-c2ccc(C)c(SCC(F)(F)F)c2)n(-c2ccc(C)c(SCC(F)(F)F)c2)c1=O [Example 79] | 4.86 | 4.67 |  |  | 90
13 |  |  | Cn1c(=O)n(C2CC2)c(=O)n1-c1ccc(Cl)c(SCC(F)(F)F)c1 [Example 40] | 3.04 | 2.98 | 100 |  | 
14 |  |  | Cc1cc(F)c(-n2c(=O)n(CC3CC3)c(=O)n2C)cc1SCC(F)(F)F [Example 161] | 3.39 | 3.34 | 100 |  | 
15 |  |  | Cc1cc(C)c(N2C(=O)C(=O)N(CC(F)(F)F)C2=S)cc1SCC(F)(F)F [Example 187] | 4.21 |  | 90 |  | 
16 |  |  | Cc1ccc(-n2c(=O)n(C)c(=O)n2-c2ccc(C)c([S+]([O-])CC(F)(F)F)c2)cc1[S+]([O-])CC(F)(F)F (stereo not drawn) [Example 82] | 2.67 | 2.61 | 90 |  | 
17 |  |  | CCn1c(=O)n(C2CC2)c(=O)n1-c1cc([S+]([O-])CC(F)(F)F)c(C)cc1F (stereo not drawn) [Example 171] | 2.18 | 2.15 | 100 |  | 
18 |  |  | Cc1cc(F)c(N2C(=O)C(=O)N(C3CC3)C2=O)cc1[S+]([O-])CC(F)(F)F (stereo not drawn) [Example 183] | 2.31 |  | 100 |  | 
19 |  |  | C=CCn1c(=O)n(C2CC2)c(=O)n1-c1cc(SCC(F)(F)F)c(C)cc1F [Example 130] | 3.31 | 3.28 | 100 |  | 
20 |  |  | Cc1ccc(-n2c(=O)n(C(C)C)c(=O)n2C)cc1SCC(F)(F)F [Example 132] | 3.42 | 3.38 | 100 |  | 
